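Each compound was tested at five concentrations against cells in 96-well plates for 48 hours. The concentration for 50% growth inhibition is given as GI50. TGI is the concentration that stops growth completely.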
Columns and labels:
Test in all cases: NCI-60 cell line screen, 48 h
OVCAR-4 ovarian = tested on: OVCAR-4 ovarian
U251 CNS = tested on: U251 CNS
MALME-3M melanoma = tested on: MALME-3M melanoma
HOP-92 NSCLC = tested on: HOP-92 NSCLC
NCI/ADR-RES ovarian = tested on: NCI/ADR-RES ovarian
SW-620 colon = tested on: SW-620 colon
SR leukemia = tested on: SR leukemia
MDA-MB-435 = tested on: MDA-MB-435
SK-OV-3 ovarian = tested on: SK-OV-3 ovarian
EKVX NSCLC = tested on: EKVX NSCLC
SK-MEL-2 melanoma = tested on: SK-MEL-2 melanoma
786-0 renal = tested on: 786-0 renal
A498 renal = tested on: A498 renal
K-562 leukemia = tested on: K-562 leukemia
SK-MEL-5 melanoma = tested on: SK-MEL-5 melanoma
SF-268 CNS = tested on: SF-268 CNS
T-47D breast = tested on: T-47D breast
SN12C renal = tested on: SN12C renal
MOLT-4 leukemia = tested on: MOLT-4 leukemia
HOP-62 NSCLC = tested on: HOP-62 NSCLC
A549 NSCLC = tested on: A549 NSCLC
SNB-19 CNS = tested on: SNB-19 CNS
HCT-116 colon = tested on: HCT-116 colon
NCI-H226 lung = tested on: NCI-H226 lung
SNB-75 CNS = tested on: SNB-75 CNS
DU-145 prostate = tested on: DU-145 prostate
COLO 205 colon = tested on: COLO 205 colon
HS 578T breast = tested on: HS 578T breast
IGROV1 ovarian = tested on: IGROV1 ovarian
OVCAR-3 ovarian = tested on: OVCAR-3 ovarian
UACC-257 melanoma = tested on: UACC-257 melanoma
UACC-62 melanoma = tested on: UACC-62 melanoma
TK-10 renal = tested on: TK-10 renal
ACHN renal = tested on: ACHN renal
SF-539 CNS = tested on: SF-539 CNS
SF-295 CNS = tested on: SF-295 CNS
MCF7 breast = tested on: MCF7 breast
MDA-MB-231 breast = tested on: MDA-MB-231 breast
NCI-H522 lung = tested on: NCI-H522 lung
OVCAR-8 ovarian = tested on: OVCAR-8 ovarian
RPMI-8226 leukemia = tested on: RPMI-8226 leukemia
M14 melanoma = tested on: M14 melanoma
LOX IMVI melanoma = tested on: LOX IMVI melanoma
OVCAR-5 ovarian = tested on: OVCAR-5 ovarian
HL-60(TB) leukemia = tested on: HL-60(TB) leukemia
NCI-H23 lung = tested on: NCI-H23 lung
HT29 colon = tested on: HT29 colon
CCRF-CEM leukemia = tested on: CCRF-CEM leukemia
NCI-H460 lung = tested on: NCI-H460 lung
RXF 393 renal = tested on: RXF 393 renal
PC-3 prostate = tested on: PC-3 prostate
BT-549 breast = tested on: BT-549 breast
HCT-15 colon = tested on: HCT-15 colon
KM12 colon = tested on: KM12 colon
UO-31 renal = tested on: UO-31 renal
CAKI-1 renal = tested on: CAKI-1 renal
HCC-2998 colon = tested on: HCC-2998 colon

O=C(c1ccccc1)c1ccc(N2C(=O)C3C4c5ccccc5C(/C=C/C(=O)c5ccccn5)(c5ccccc54)C3C2=O)cc1 (centres undefined)
GI50 (OVCAR-4 ovarian): 4.3 µM
TGI (OVCAR-4 ovarian): > 100 µM
GI50 (U251 CNS): 2080 nM
TGI (U251 CNS): 4.62 µM
GI50 (MALME-3M melanoma): 2330 nM
TGI (MALME-3M melanoma): 6.48 µM
GI50 (HOP-92 NSCLC): 1800 nM
TGI (HOP-92 NSCLC): 7.13 µM
GI50 (NCI/ADR-RES ovarian): 2680 nM
TGI (NCI/ADR-RES ovarian): 12.8 µM
GI50 (SW-620 colon): 2820 nM
TGI (SW-620 colon): > 100 µM
GI50 (SR leukemia): 1370 nM
TGI (SR leukemia): > 100 µM
GI50 (MDA-MB-435): 2900 nM
TGI (MDA-MB-435): 9.22 µM
GI50 (SK-OV-3 ovarian): > 81.7 µM
TGI (SK-OV-3 ovarian): > 100 µM
GI50 (EKVX NSCLC): 3.02 µM
TGI (EKVX NSCLC): 39 µM
GI50 (SK-MEL-2 melanoma): 3.07 µM
TGI (SK-MEL-2 melanoma): 15.4 µM
GI50 (786-0 renal): 2550 nM
TGI (786-0 renal): 6.85 µM
GI50 (A498 renal): 2190 nM
TGI (A498 renal): 5.8 µM
GI50 (K-562 leukemia): 1770 nM
TGI (K-562 leukemia): > 100 µM
GI50 (SK-MEL-5 melanoma): 2360 nM
TGI (SK-MEL-5 melanoma): 5.71 µM
GI50 (SF-268 CNS): > 23.1 µM
TGI (SF-268 CNS): > 100 µM
GI50 (T-47D breast): 2750 nM
TGI (T-47D breast): > 100 µM
GI50 (SN12C renal): 2730 nM
TGI (SN12C renal): > 100 µM
GI50 (MOLT-4 leukemia): 2290 nM
TGI (MOLT-4 leukemia): > 100 µM
GI50 (HOP-62 NSCLC): 3.43 µM
TGI (HOP-62 NSCLC): > 100 µM
GI50 (A549 NSCLC): 2870 nM
TGI (A549 NSCLC): > 100 µM
GI50 (SNB-19 CNS): 3.72 µM
TGI (SNB-19 CNS): > 100 µM
GI50 (HCT-116 colon): 1660 nM
TGI (HCT-116 colon): 4.02 µM
GI50 (NCI-H226 lung): 2060 nM
TGI (NCI-H226 lung): 4.48 µM
GI50 (SNB-75 CNS): 940 nM
TGI (SNB-75 CNS): > 100 µM
GI50 (DU-145 prostate): 2780 nM
TGI (DU-145 prostate): 8.1 µM
GI50 (COLO 205 colon): 3.72 µM
TGI (COLO 205 colon): 20.8 µM
GI50 (HS 578T breast): 2980 nM
TGI (HS 578T breast): > 100 µM
GI50 (IGROV1 ovarian): 1860 nM
TGI (IGROV1 ovarian): 4.48 µM
GI50 (OVCAR-3 ovarian): 1830 nM
TGI (OVCAR-3 ovarian): 3.85 µM
GI50 (UACC-257 melanoma): 2440 nM
TGI (UACC-257 melanoma): 46.6 µM
GI50 (UACC-62 melanoma): 2210 nM
TGI (UACC-62 melanoma): 7.44 µM
GI50 (TK-10 renal): 6.68 µM
TGI (TK-10 renal): > 100 µM
GI50 (ACHN renal): 2070 nM
TGI (ACHN renal): 4.64 µM
GI50 (SF-539 CNS): 2070 nM
TGI (SF-539 CNS): 4.91 µM
GI50 (SF-295 CNS): 2030 nM
TGI (SF-295 CNS): 5.07 µM
GI50 (MCF7 breast): 1770 nM
TGI (MCF7 breast): > 100 µM
GI50 (MDA-MB-231 breast): 2340 nM
TGI (MDA-MB-231 breast): 6.4 µM
GI50 (NCI-H522 lung): 2280 nM
TGI (NCI-H522 lung): 6.82 µM
GI50 (OVCAR-8 ovarian): 2560 nM
TGI (OVCAR-8 ovarian): > 100 µM
GI50 (RPMI-8226 leukemia): 2490 nM
TGI (RPMI-8226 leukemia): 53.3 µM
GI50 (M14 melanoma): 3.4 µM
TGI (M14 melanoma): > 100 µM
GI50 (LOX IMVI melanoma): 1560 nM
TGI (LOX IMVI melanoma): 3.51 µM
GI50 (OVCAR-5 ovarian): 2000 nM
TGI (OVCAR-5 ovarian): 5.97 µM
GI50 (HL-60(TB) leukemia): 1900 nM
TGI (HL-60(TB) leukemia): 28.1 µM
GI50 (NCI-H23 lung): 2050 nM
TGI (NCI-H23 lung): 5.09 µM
GI50 (HT29 colon): 2920 nM
TGI (HT29 colon): > 100 µM
GI50 (CCRF-CEM leukemia): 976 nM
TGI (CCRF-CEM leukemia): > 100 µM
GI50 (NCI-H460 lung): 2670 nM
TGI (NCI-H460 lung): 9.23 µM
GI50 (RXF 393 renal): 1560 nM
TGI (RXF 393 renal): 3.07 µM
GI50 (PC-3 prostate): 3.74 µM
TGI (PC-3 prostate): > 100 µM
GI50 (BT-549 breast): 2620 nM
TGI (BT-549 breast): 9.88 µM
GI50 (HCT-15 colon): 1690 nM
TGI (HCT-15 colon): 4.4 µM
GI50 (KM12 colon): 1880 nM
TGI (KM12 colon): 4.39 µM
GI50 (UO-31 renal): 1450 nM
TGI (UO-31 renal): 2920 nM
GI50 (CAKI-1 renal): 8.82 µM
TGI (CAKI-1 renal): > 100 µM
GI50 (HCC-2998 colon): 1720 nM
TGI (HCC-2998 colon): 3.34 µM

Source: PubChem BioAssay (NCI)
